Data published in patent publication US11497212B2, “Substituted thiophenyl uracils, salts thereof and the use thereof as herbicidal agents” (Syngenta Crop Protection AG, priority 2017, dated 2022).

What was measured:
Format in all cases: in vivo
[1] = test system: Matricaria inodora; test: Herbicidal action pre-emergence (greenhouse pot trial); details: application rate 80 g/ha, scored after about 3 weeks
Procedure, shortened: (§1)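 In this test the compounds, as suspensions or emulsions in water plus 0.5% additive, are sprayed onto the soil layer covering seeds at 320 g/ha or lower. Scoring happens visually after about three weeks under good greenhouse growth conditions.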

[2] = test system: Amaranthus retroflexus; test: as above; details: application rate 80 g/ha, scored after about 3 weeks
Procedure, shortened: as §1

[3] = test system: Polygonum convolvulus; test: as above; details: application rate 80 g/ha, scored after about 3 weeks
Procedure, shortened: as §1

[4] = test system: Viola tricolor; test: as above; details: application rate 80 g/ha, scored after about 3 weeks
Procedure, shortened: as §1

[5] = test system: Veronica persica; test: as above; details: application rate 80 g/ha
Procedure, shortened: as §1

[6] = test system: Abutilon theophrasti; test: as above; details: application rate 80 g/ha, scored after about 3 weeks
Procedure, shortened: as §1

[7] = test system: Zea mays; test: Crop compatibility pre-emergence (greenhouse pot trial); details: application rate 80 g/ha, effect vs untreated controls
Procedure, shortened: (§2)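 Visual percentage scoring against untreated controls, about 3 weeks after treatment, gave the crop injury values (100% = plants died, 0% = like controls). Compounds, as wettable powders or emulsion concentrates, were sprayed onto covering soil over sown seeds at 600 L/ha water with 0.5% additive.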

[8] = test system: Glycine max; test: as above; details: application rate 80 g/ha, effect vs untreated controls
Procedure, shortened: as §2

[9] = test system: Oryza sativa; test: Crop compatibility post-emergence (greenhouse pot trial); details: application rate 20 g/ha
Procedure, shortened: (§3)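 Compatibility is expressed as visually scored percent injury, where 0% means no difference from untreated controls and 100% means dead plants, assessed about 3 weeks after a foliar spray at 600 L/ha with 0.5% additive on one-leaf-stage pot plants in sandy loam.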

[10] = test system: Triticum aestivum; test: as above; details: application rate 20 g/ha
Procedure, shortened: as §3

[11] = test system: Zea mays; test: as above
Procedure, shortened: as §3

[12] = test system: Matricaria inodora; test: Herbicidal action post-emergence (greenhouse pot trial); details: application rate 20 g/ha, scored visually after about 3 weeks vs untreated controls
Procedure, shortened: (§4)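 Foliar application post-emergence; water volume 600 L/ha, additive 0.5%, dose ≤80 g/ha. Scoring: visual, ~3 wk, relative to untreated (0–100%).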

[13] = test system: Amaranthus retroflexus; test: as above; details: application rate 20 g/ha, scored visually after about 3 weeks vs untreated controls
Procedure, shortened: as §4

[14] = test system: Polygonum convolvulus; test: as above; details: application rate 20 g/ha, scored visually after about 3 weeks vs untreated controls
Procedure, shortened: as §4

[15] = test system: Viola tricolor; test: as above; details: application rate 20 g/ha
Procedure, shortened: as §4

[16] = test system: Veronica persica; test: as above; details: application rate 20 g/ha
Procedure, shortened: as §4

[17] = test system: Abutilon theophrasti; test: as above; details: application rate 20 g/ha, scored visually after about 3 weeks vs untreated controls
Procedure, shortened: as §4

[18] = test system: Stellaria media; test: Herbicidal action pre-emergence (greenhouse pot trial); details: application rate 80 g/ha, scored after about 3 weeks
Procedure, shortened: as §1

[19] = test system: Echinochloa crus-galli; test: as above; details: application rate 80 g/ha, scored after about 3 weeks
Procedure, shortened: as §1

[20] = test system: Pharbitis purpurea; test: as above; details: application rate 80 g/ha
Procedure, shortened: as §1

[21] = test system: Setaria viridis; test: as above; details: application rate 80 g/ha, scored after about 3 weeks
Procedure, shortened: as §1

[22] = test system: Digitaria sanguinalis; test: as above; details: application rate 80 g/ha
Procedure, shortened: as §1

[23] = test system: Oryza sativa; test: Crop compatibility pre-emergence (greenhouse pot trial); details: application rate 20 g/ha, effect vs untreated controls
Procedure, shortened: as §2

[24] = test system: Stellaria media; test: Herbicidal action post-emergence (greenhouse pot trial); details: application rate 20 g/ha, scored visually after about 3 weeks vs untreated controls
Procedure, shortened: as §4

[25] = test system: Echinochloa crus-galli; test: as above; details: application rate 20 g/ha, scored visually after about 3 weeks vs untreated controls
Procedure, shortened: as §4

[26] = test system: Pharbitis purpurea; test: as above; details: application rate 20 g/ha
Procedure, shortened: as §4

[27] = test system: Setaria viridis; test: as above; details: application rate 20 g/ha, scored visually after about 3 weeks vs untreated controls
Procedure, shortened: as §4

[28] = test system: Digitaria sanguinalis; test: as above; details: application rate 20 g/ha
Procedure, shortened: as §4

Structure (SMILES) | Matricaria inodora (Efficacy in %) [1] | Amaranthus retroflexus (Efficacy in %) [2] | Polygonum convolvulus (Efficacy in %) [3] | Viola tricolor (Efficacy in %) [4] | Veronica persica (Efficacy in %) [5] | Abutilon theophrasti (Efficacy in %) [6] | Zea mays (Efficacy in %) [7] | Glycine max (Efficacy in %) [8] | Oryza sativa (Efficacy in %) [9] | Triticum aestivum (Efficacy in %) [10] | Matricaria inodora (Efficacy in %) [12] | Amaranthus retroflexus (Efficacy in %) [13] | Polygonum convolvulus (Efficacy in %) [14] | Viola tricolor (Efficacy in %) [15] | Veronica persica (Efficacy in %) [16] | Abutilon theophrasti (Efficacy in %) [17] | other results
CC(Sc1cc(-n2c(=O)cc(C(F)(F)F)n(C)c2=O)c(F)cc1Cl)C(=O)OCC1CCCS1 (stereo not drawn) [I.1-81] | 80% | 100% | 100% | 100% | 80% | 100% | 0% | 0% | 0% | 20% | 90% | 100% | 90% | 100% | 100% | 100% | Zea mays (Efficacy in %) ([11]; application rate 20 g/ha): 10%
CCC(Sc1cc(-n2c(=O)cc(C(F)(F)F)n(C)c2=O)c(F)cc1Cl)C(=O)OCC1CCCO1 (stereo not drawn) [I.2-71] | 100% | 100% | 100% | 100% | 100% | 100% | 10% | 0% | 20% | 20% | 100% | 100% | 100% | 100% | 100% | 100% | Stellaria media (Efficacy in %) [18]: 100%; Echinochloa crus-galli (Efficacy in %) [19]: 100%; Pharbitis purpurea (Efficacy in %) [20]: 100%; Setaria viridis (Efficacy in %) [21]: 100%; Digitaria sanguinalis (Efficacy in %) [22]: 100%; Oryza sativa (Efficacy in %) [23]: 0%; Zea mays (Efficacy in %) ([11]; application rate 5 g/ha): 0%; Stellaria media (Efficacy in %) [24]: 100%; Echinochloa crus-galli (Efficacy in %) [25]: 80%; Pharbitis purpurea (Efficacy in %) [26]: 100%; Setaria viridis (Efficacy in %) [27]: 90%; Digitaria sanguinalis (Efficacy in %) [28]: 100%
